The text below walks through data of EP4585588A1, “BENZIMIDAZOLE COMPOUND, AND PREPARATION METHOD THEREFOR AND USE THEREOF” (Suzhou Pharmavan Co., Ltd., priority 2022, dated 2024).

Structures are written as SMILES.

In the test the test system is myosin heavy chain β (β-MHC). Conditions: 48 h, 10 µM.
As for `Cc1nc2cc(-c3cc(C(=O)N(C)C)cc(F)c3CO)ccc2[nH]1` [Formula II-104, 3-fluoro-4-(hydroxymethyl)-N,N-dimethyl-5-(2-methyl-1H-benzimidazol-5-yl)benzamide], the “Mean (real-time quantitative PCR validation results of cardiomyocyte β-MHC)” value (“Mean” for short) was determined as 1.25.
Take `CN(C)C(=O)c1cc(C#N)c(CO)c(-c2ccc3[nH]cnc3c2)c1` [Formula II-129, 3-cyano-4-(hydroxymethyl)-N,N-dimethyl-5-(1H-benzimidazol-5-yl)benzamide]: the “Mean” value came to 1.34.
Under `CC(C)(O)c1ccc(F)cc1-c1ccc2[nH]cnc2c1` [Formula II-25, 2-(4-fluoro-2-(1H-benzimidazol-5-yl)phenyl)propane-2-ol] stands 1.52; under `Cc1nc2cc(-c3cc(C(N)=O)cc(C#N)c3CO)ccc2[nH]1` [Formula II-102, 3-cyano-4-(hydroxymethyl)-5-(2-methyl-1H-benzimidazol-5-yl)benzamide], 1.28; under `COC(=O)c1cc(C#N)c(O)c(-c2ccc3[nH]cnc3c2)c1` [Formula I-38, methyl 3-cyano-4-hydroxy-5-(1H-benzimidazol-5-yl) benzoate], 1.26.
With `NC(=O)c1ccc(O)c(-c2ccc3[nH]cnc3c2)c1` [Formula I-27, 4-hydroxy-3-(1H-benzimidazol-5-yl)benzamide], the “Mean” value is on record as 1.27.
With `Cc1nc2cc(-c3cc(C(=O)N(C)C)cc(C#N)c3C(C)O)ccc2[nH]1` (centres unmarked) [Formula II-57, 3-cyano-4-(1-hydroxyethyl)-N,N-dimethyl-5-(2-methyl-1H-benzimidazol-5-yl)benzamide], the “Mean” value is given as 1.26.
In the case of `Cc1nc2cc(-c3cc(C(=O)O)ccc3C(C)(C)O)ccc2[nH]1` [Formula II-10, 4-(2-hydroxypropan-2-yl)-3-(2-methyl-1H-benzimidazol-5-yl)benzoic acid] it was 1.27; in that of `Cc1nc2cc(-c3cc(F)ccc3C(C)O)ccc2[nH]1` (centres unmarked) [Formula II-49, 1-(4-fluoro-2-(2-methyl-1H-benzimidazol-5-yl)phenyl)ethane-1-ol], 1.36.
In the case of `CC(C)(O)c1c(C#N)cc(C(=O)O)cc1-c1ccc2[nH]cnc2c1` [Formula II-36, 3-cyano-4-(2-hydroxypropan-2-yl)-5-(1H-benzimidazol-5-yl)benzoic acid] it was 1.41; in that of `CC(C)(O)c1c(F)cc(F)cc1-c1ccc2[nH]cnc2c1` [Formula II-26, 2-(2,4-difluoro-6-(1H-benzimidazol-5-yl)phenyl)propane-2-ol], 1.42.
Under `Cc1nc2cc(-c3cc(C(N)=O)cc(C#N)c3C(C)O)ccc2[nH]1` (centres unmarked) [Formula II-54, 3-cyano-4-(1-hydroxyethyl)-5-(2-methyl-1H-benzimidazol-5-yl)benzamide] stands 1.28.
In the case of `C=CCc1cc(F)c(O)c(-c2ccc3[nH]cnc3c2)c1` [Formula I-40, 4-allyl-2-(1H-benzimidazol-5-yl)-6-fluorophenol], the “Mean” value amounted to 1.28.
As for `CCCc1ccc(O)c(-c2ccc3[nH]c(C)nc3c2)c1` [Formula I-21, 2-(2-methyl-1H-benzimidazol-5-yl)-4-propylphenol], the “Mean” value is reported as 1.05.
